# Measurements published in US20050043273A1, “Compositions and methods for inhibiting slit protein and glypican interactions” (priority 2003, published 2005).
# Columns and labels:
# [1] = tested on: glypican-1-Fc binding to human full-length Slit-2; assay: ELISA: inhibition of glypican-1-Fc binding to Slit-2
# Method: Human embryonic kidney 293 cells were transfected with a glypican-1-Fc fusion protein construct using Lipofectamine 2000 and grown in serum-free DMEM containing 1% ITS+. To separate the glycanated form of the proteoglycan (which was used for all studies) from unglycanated core protein, the conditioned medium was applied to a 0.9×8 cm column of DEAE-Sephacel equilibrated with 150 mM NaCl, 50 mM Tris-HCl, pH 8.0. After elution with 50 mM Tris-HCl (pH 8.0) containing 0.6 M NaCl, the glycanated glypican-1-Fc was bound to protein A-Sepharose beads, eluted with 0.1 M glycine, pH 3.0, and immediately neutralized with 1 M Tris, pH 8.0, for storage at −80° C.
# 293 cells were transfected with the pSecTagB vector (Invitrogen, Carlsbad, Calif.) containing cDNA for the His-tagged uncleavable variant of human full-length Slit-2, in which the nine amino acids encompassing the proteolytic processing site were deleted, producing an uncleavable full-length protein. 1 M NaCl extracts of the 293 cells were incubated with nickel-agarose beads (Qiagen) for 2 hours at 4° C., and after washing, bound protein was eluted with 10 mM Hepes (pH 7.5) containing 250 mM imidazole and 1 M NaCl. Protein concentrations were determined by the Bradford assay. Purity of the recombinant Slit protein was confirmed by SDS-PAGE followed by silver staining.
# 96-well plates (Corning Costar #9018) were coated overnight with the human full-length Slit-2 in imadazole/NaCl elution buffer at a saturating concentration of 1-5 μg/well, after dilution in PBS. Unbound protein was removed by washing with TBST (10 mM Tris-HCl, pH 7.4, 150 mM NaCl, 0.1% Tween 20), the wells were blocked with 10% FBS in TBST for 2 hours, and then incubated for 18 hours at room temperature with glypican-1-Fc (1 μg/well) in 5 mM PBS (pH 7.2), or in PBS containing varying concentrations of potential inhibitory compositions. Bound glypican was detected using a biotinylated anti-human Fc antibody (Jackson Immunoresearch; 1:250,000 in TBST, for 2 hours), followed by incubation for 20 minutes with HRP-conjugated streptavidin (1:20,000 in TBST). The colorimetric reaction product from the o-phenylenediamine substrate was measured at 450 nm using a Dynatech MRX ELISA plate reader. Nonspecific binding was calculated as the binding of glypican-1-Fc to wells coated with BSA (2 mg/ml solution). Percent inhibition was calculated in relation to parallel assay wells in which no inhibitor was added to the glypican-1 solution. From serial dilutions of a known concentration of glypican-1-Fc directly coated on the wells and the corresponding immunoreactivity absorbance, a standard curve could also be created and used to quantitate the absolute amount of glypican-1-Fc bound.
# The glypican-1-Fc and human Slit-2 fusion proteins are prepared as set forth in Example One.
# [2] = tested on: vascular endothelial cells; conditions: cited from earlier work
# whole blood = conditions: cited from earlier work
% inhibition of glypican-1 binding to Slit ([1]; 50 μM),% inhibition of glypican-1 binding to Slit ([1]; 1 μM),% inhibition of glypican-1 binding to Slit ([1]; 5 μM),SMILES,antithrombotic activity [2],anticoagulant activity (whole blood),"inhibition of glypican binding to Slit proteins (in words) ([1]; ELISA, function of oligosaccharide size, FIG. 1)"
no effect,–,–,CO[C@H]1O[C@H](COS(=O)(=O)O)[C@@H](O[C@@H]2O[C@@H](C(=O)O)[C@@H](O[C@H]3O[C@H](COS(=O)(=O)O)[C@@H](O[C@@H]4O[C@H](C(=O)O)[C@@H](O[C@H]5O[C@H](COS(=O)(=O)O)[C@@H](O)[C@H](O)[C@H]5NS(=O)(=O)O)[C@H](O)[C@H]4O)[C@H](OS(=O)(=O)O)[C@H]3NS(=O)(=O)O)[C@H](O)[C@H]2OS(=O)(=O)O)[C@H](O)[C@H]1NS(=O)(=O)O [Arixtra],–,–,–
67%,58%,61%,O=S(=O)(O)c1cc2c(O)c(c1)Cc1cc(S(=O)(=O)O)cc(c1O)Cc1cc(S(=O)(=O)O)cc(c1O)Cc1cc(S(=O)(=O)O)cc(c1O)Cc1cc(S(=O)(=O)O)cc(c1O)Cc1cc(S(=O)(=O)O)cc(c1O)Cc1cc(S(=O)(=O)O)cc(c1O)Cc1cc(S(=O)(=O)O)cc(c1O)C2 [GL-522-Y-1],heparin-like antithrombotic activity,no significant anticoagulant activity,–
–,–,–,Cc1ccc(C(=O)Nc2ccc(S(=O)(=O)O)c3cc(S(=O)(=O)O)cc(S(=O)(=O)O)c23)cc1NC(=O)c1cccc(NC(=O)Nc2cccc(C(=O)Nc3cc(C(=O)Nc4ccc(S(=O)(=O)O)c5cc(S(=O)(=O)O)cc(S(=O)(=O)O)c45)ccc3C)c2)c1 [suramin],–,–,inhibits glypican-Slit interactions to the same extent as large heparin oligosaccharides
